What was measured:
SKOV-3 cell line = experiment: Antiproliferative effect against the SKOV-3 cell line (GI50, cell count); assay type: cell-based, human; details: for GI50: Homo sapiens, SK-OV-3, 72 h
Procedure: (§1) SKOV-3, A2780 and A2780 CIS were cultured and maintained, as previously described,[50] at 37 °C in RPMI 1640 medium (Euroclone) supplemented with 10% fetal bovine serum (FBS; Euroclone), L-glutamine and penicillin/streptomycin (SIGMA-ALDRICH). OVCA433, HEK-293T, HeLa, HCCLM3, SK-Hep-1, MCF-7, A549 and HCT-116 cells were maintained in DMEM medium (Euroclone) containing 10% FBS (Euroclone), L-glutamine and penicillin/streptomycin (SIGMA-ALDRICH). Wi-38 cells were cultured in DMEM medium (Euroclone) supplemented with 10% FBS (Euroclone), L-glutamine and penicillin/streptomycin (SIGMA-ALDRICH), and 1% non-essential amino acids (NEAA; Euroclone). The cultures were maintained in a constant temperature incubator at 37 °C with 5% CO2. […] Once cell adhesion had been promoted, the compounds were added to the culture medium. After 72 hours of treatment, the cells were counted, and the data analyzed by linear regression. Each experiment was carried out three times in triplicate and three separate cell counts were made for each sample. […] Afterwards, the concentration range was narrowed to the relative value obtained in the first evaluation in order to obtain an accurate value.

[1] = Cytotoxicity against non-tumor Wi-38 cells (CC50, cell count); assay type: cell-based; details: human, Wi-38 cells (non-tumor), 50% cytotoxicity concentration, 72 hours of treatment
Procedure: as §1

miRNA processing / RNAi = tested on: miRNA processing / RNAi; parameters: method as in PMID 18641635; details: cited from earlier work
[2] = tested on: cisplatin-resistant A2780 cells (A2780 CIS); experiment: Viable cells of cisplatin-resistant A2780 (A2780 CIS) treated with 33, cisplatin or both; assay type: cell-based, human; details: cisplatin 1 μM, 48 hours
Procedure: A2780 and SKOV-3 cells were treated with 50 μM of 33 for 72 h before RNA and protein extraction and expression analyses. A2780 and A2780 CIS were treated with 33 (30 μM) and/or cisplatin (1 μM, Sigma-Aldrich) for 48 hours while MCF-7, A549 and HCT-116 were treated with 33 (30 μM) for 72 hours. Total cell number and viability have been assessed using Trypan Blue Solution (Thermo Fisher Scientific) and Countess™ 3 Automated Cell Counter (Thermo Fisher Scientific).

[3] = 50% cell growth inhibition, 72 hours of treatment, cell count, ND = activity not dose dependent

| Compound | GI50 (SKOV-3 cell line; [3]) | CC50 at 72 h [1] | further results |
| --- | --- | --- | --- |
| Cn1cc(C(=O)O)c(=O)c2cc(N)c(N3CCN(c4nccs4)CC3)cc21 [Compound 8] | 50 µM |  |  |
| Cn1cc(C(=O)O)c(=O)c2ccc(N3CCN(c4nccs4)CC3)nc21 [Compound 9] | 50 µM |  |  |
| CN1CCN(c2c(F)cc3c(=O)c(C(=O)O)cn4c3c2SCC4)CC1 [Compound 10, rufloxacin, reference compound] | 100 µM |  |  |
| CCn1cc(C(=O)O)c(=O)c2cc(N)c(N3CCc4ccccc4C3)c(C)c21 [Compound 11, 6-Amino-7-(3,4-dihydroisoquinolin-2(1H)-yl)-1-ethyl-8-methyl-4-oxo-1,4-dihydroquinoline-3-carboxylic acid] | 13.1 ± 1.29 µM | 53.5 ± 20.6 µM | fold more toxic against tumor cells (CC50 Wi-38 vs GI50 SKOV-3) (SKOV-3 cell line; SKOV-3 versus Wi-38): approximately 4 fold |
| Cc1c(N2CCC(c3ccccc3)CC2)c(N)cc2c(=O)c(C(=O)O)cn(C3CC3)c12 [Compound 12, 6-Amino-1-cyclopropyl-8-methyl-4-oxo-7-(4-phenylpiperidin-1-yl)-1,4-dihydroquinoline-3-carboxylic acid] | 17.1 ± 2.61 µM | 53 ± 14.9 µM |  |
| Cc1c(NCCN2CCCCC2)c(N)cc2c(=O)c(C(=O)O)cn(C3CC3)c12 [Compound 14, 6-Amino-1-cyclopropyl-8-methyl-4-oxo-7-[(2-piperidin-1-ylethyl)amino]-1,4-dihydroquinoline-3-carboxylic acid] | 103 ± 21.6 µM |  |  |
| NC(=O)c1cn(C2CC2)c2cc(N3CCc4ccccc4C3)c(N)cc2c1=O [Compound 17, 6-Amino-1-cyclopropyl-7-(3,4-dihydroisoquinolin-2(1H)-yl)-4-oxo-1,4-dihydroquinoline-3-carboxamide] |  |  | GI50 SKOV-3 (SKOV-3 cell line; [3]): completely inactive |
| O=C(O)c1cn(C2CC2)c2nc(N3CCc4ccccc4C3)c(F)cc2c1=O [Compound 28, 1-Cyclopropyl-7-(3,4-dihydroisoquinolin-2(1H)-yl)-6-fluoro-4-oxo-1,4-dihydro-1,8-naphthyridine-3-carboxylic acid] | 46.8 ± 7.44 µM |  |  |
| CCN(Cc1ccccc1)c1nc2c(cc1F)c(=O)c(C(=O)O)cn2CC [Compound 29, 7-[Benzyl(ethyl)amino]-1-ethyl-6-fluoro-4-oxo-1,4-dihydro-1,8-naphthyridine-3-carboxylic acid] | 16.2 ± 1.03 µM | 25.5 ± 11.5 µM |  |
| CCn1cc(C(=O)O)c(=O)c2cc(F)c(N3CCC(c4ccccc4)CC3)nc21 [Compound 30, 1-Ethyl-6-fluoro-4-oxo-7-(4-phenylpiperidin-1-yl)-1,4-dihydro-1,8-naphthyridine-3-carboxylic acid] | 8.34 ± 1.28 µM | 4.65 ± 5.96 µM |  |
| CCn1cc(C(=O)O)c(=O)c2cc(F)c(N3CCc4ccccc4C3)c(C)c21 [Compound 31, 7-(3,4-Dihydroisoquinolin-2(1H)-yl)-1-ethyl-6-fluoro-8-methyl-4-oxo-1,4-dihydroquinoline-3-carboxylic acid] | 14.9 ± 3.24 µM | 56.6 ± 37.4 µM |  |
| O=C(O)c1cn(C2CC2)c2cc(N3CCNCC3)c(F)cc2c1=O [ciprofloxacin] |  |  | RNAi enhancer / SMER effect (miRNA processing / RNAi): very weak SMER |
| N.N.[Cl][Pt][Cl] [cisplatin, reference compound] |  |  | resistance of A2780 CIS to cisplatin compared to A2780 [2]: significantly greater resistance to cisplatin |
| CC1COc2c(N3CCN(C)CC3)c(F)cc3c(=O)c(C(=O)O)cn1c23 (centres unmarked) [ofloxacin] |  |  | RNAi enhancer / SMER effect (miRNA processing / RNAi): did not show any significant RNAi enhancer effect |

Second part, led by results:

| GI50 (SKOV-3 cell line; [3]) | Compound | CC50 at 72 h [1] | further results |
| --- | --- | --- | --- |
| 28.8 ± 4.11 µM | Cc1c(N2Cc3ccccc3C2)c(N)cc2c(=O)c(C(=O)O)cn(C3CC3)c12 [Compound 13, 6-Amino-1-cyclopropyl-7-(1,3-dihydro-2H-isoindol-2-yl)-8-methyl-4-oxo-1,4-dihydroquinoline-3-carboxylic acid] |  |  |
| 13.2 ± 1.13 µM | Nc1cc2c(=O)c(C(=O)O)cn(C3CC3)c2cc1N1CCc2ccccc2C1 [Compound 15, 6-Amino-1-cyclopropyl-7-(3,4-dihydroisoquinolin-2(1H)-yl)-4-oxo-1,4-dihydroquinoline-3-carboxylic acid] | 36.3 ± 8.86 µM |  |
| 5.44 ± 0.13 µM | CCn1cc(C(=O)O)c(=O)c2cc(N)c(N3CCc4ccccc4C3)cc21 [Compound 16, 6-Amino-7-(3,4-dihydroisoquinolin-2(1H)-yl)-1-ethyl-4-oxo-1,4-dihydroquinoline-3-carboxylic acid] | 8.19 ± 14.3 µM |  |
| 152 ± 3.05 µM | Nc1cc2c(=O)c(C(=O)O)cn(C3CC3)c2cc1N1CCc2ncncc2C1 [Compound 18, 6-Amino-1-cyclopropyl-7-(7,8-dihydropyrido[4,3-d]pyrimidin-6(5H)-yl)-4-oxo-1,4-dihydroquinoline-3-carboxylic acid] |  |  |
| 104 ± 2.03 µM | Nc1cc2c(=O)c(C(=O)O)cn(C3CC3)c2cc1N1CCc2nccnc2C1 [Compound 19, 6-Amino-1-cyclopropyl-7-(7,8-dihydropyrido[3,4-b]pyrazin-6(5H)-yl)-4-oxo-1,4-dihydroquinoline-3-carboxylic acid] |  |  |
| 65.4 ± 24.3 µM | Nc1cc2c(=O)c(C(=O)O)cn(C3CC3)c2cc1N1CCNc2ccccc21 [Compound 20, 6-Amino-1-cyclopropyl-7-(3,4-dihydroquinoxalin-1(2H)-yl)-4-oxo-1,4-dihydroquinoline-3-carboxylic acid] |  |  |
| 23.7 ± 1.02 µM | Nc1cc2c(=O)c(C(=O)O)cn(C3CC3)c2cc1N1CCc2sccc2C1 [Compound 21, 6-Amino-1-cyclopropyl-7-(6,7-dihydrothieno[3,2-c]pyridin-5(4H)-yl)-4-oxo-1,4-dihydroquinoline-3-carboxylic acid] | 103 ± 15.5 µM |  |
| 18.5 ± 1.71 µM | CC1c2ccccc2CCN1c1cc2c(cc1N)c(=O)c(C(=O)O)cn2C1CC1 (centres unmarked) [Compound 22, 6-Amino-1-cyclopropyl-7-(1-methyl-3,4-dihydroisoquinolin-2(1H)-yl)-4-oxo-1,4-dihydroquinoline-3-carboxylic acid] | 59.9 ± 5.95 µM |  |
| 46.2 ± 8.38 µM | Nc1cc2c(=O)c(C(=O)O)cn(C3CC3)c2cc1N1Cc2ccccc2C[C@H]1CO [Compound 23, 6-Amino-1-cyclopropyl-7-[(3S)-3-(hydroxymethyl)-3,4-dihydroisoquinolin-2(1H)-yl]-4-oxo-1,4-dihydroquinoline-3-carboxylic acid] |  |  |
| 9.19 ± 1.05 µM | Nc1cc2c(=O)c(C(=O)O)cn(C3CC3)c2cc1N1CCC(c2ccccc2)CC1 [Compound 24, 6-Amino-1-cyclopropyl-4-oxo-7-(4-phenylpiperidin-1-yl)-1,4-dihydroquinoline-3-carboxylic acid] | 45 ± 13.4 µM |  |
| 16 ± 2.94 µM | CCN(Cc1ccccc1)c1cc2c(cc1N)c(=O)c(C(=O)O)cn2C1CC1 [Compound 25, 6-Amino-7-[benzyl(ethyl)amino]-1-cyclopropyl-4-oxo-1,4-dihydroquinoline-3-carboxylic acid] | 79.7 ± 11.8 µM |  |
| 33.9 ± 6.43 µM | Nc1cc2c(=O)c(C(=O)O)cn(C3CC3)c2cc1N(CCO)Cc1ccccc1 [Compound 26, 6-Amino-7-[benzyl(2-hydroxyethyl)amino]-1-cyclopropyl-4-oxo-1,4-dihydroquinoline-3-carboxylic acid] |  | fold increase in GI50 SKOV-3 versus 25 (SKOV-3 cell line; versus compound 25): 2 fold |
| 25 ± 6.04 µM | Cc1c(N2CCc3ccccc3C2)c(F)cc2c(=O)c(C(=O)O)cn(C3CC3)c12 [Compound 32, 1-Cyclopropyl-7-(3,4-dihydroisoquinolin-2(1H)-yl)-6-fluoro-8-methyl-4-oxo-1,4-dihydroquinoline-3-carboxylic acid] | 90.7 ± 30.9 µM |  |
